{"source": "paper PMC3140938", "about": "(Analytical and Bioanalytical Chemistry, 2011)", "key": {"[1]": {"target": "T1, human glucocorticoid receptor alpha (hGRα) (Homo sapiens, UniProt P04150)", "T1 sequence (P04150 1-777)": "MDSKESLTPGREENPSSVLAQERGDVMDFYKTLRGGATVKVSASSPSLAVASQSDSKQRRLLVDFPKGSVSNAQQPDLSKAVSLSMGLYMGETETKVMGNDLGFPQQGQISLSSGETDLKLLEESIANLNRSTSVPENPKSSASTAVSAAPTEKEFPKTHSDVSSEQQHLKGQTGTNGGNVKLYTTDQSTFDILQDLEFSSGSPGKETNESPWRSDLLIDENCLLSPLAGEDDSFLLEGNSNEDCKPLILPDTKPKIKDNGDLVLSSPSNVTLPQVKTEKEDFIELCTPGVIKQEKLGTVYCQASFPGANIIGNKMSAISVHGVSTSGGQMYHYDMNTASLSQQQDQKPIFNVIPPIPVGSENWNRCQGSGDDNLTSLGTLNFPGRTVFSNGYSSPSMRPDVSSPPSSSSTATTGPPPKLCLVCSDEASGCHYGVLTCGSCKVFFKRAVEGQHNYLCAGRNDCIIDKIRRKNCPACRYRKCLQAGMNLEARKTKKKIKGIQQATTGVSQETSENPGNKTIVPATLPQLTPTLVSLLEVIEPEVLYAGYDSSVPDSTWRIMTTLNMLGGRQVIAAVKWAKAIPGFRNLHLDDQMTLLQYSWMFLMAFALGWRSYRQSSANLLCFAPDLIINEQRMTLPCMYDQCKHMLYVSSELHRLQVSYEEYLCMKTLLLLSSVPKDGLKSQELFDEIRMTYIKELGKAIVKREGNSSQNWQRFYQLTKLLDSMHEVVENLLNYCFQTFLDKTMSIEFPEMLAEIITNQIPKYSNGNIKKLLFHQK", "assay_type": "cell-based", "conditions": "yeast"}, "[2]": {"target": "T1, human glucocorticoid receptor alpha (hGRα)", "assay": "cell-based", "assay_type": "cell-based"}, "hGRα [3]": {"target": "T2, hGRα (Homo sapiens, UniProt P04150)", "T2 sequence (P04150 1-777)": "T1 sequence (P04150 1-777)", "assay": "cell-based", "assay_type": "cell-based", "conditions": "for RCP (relative corticoid potency): ratio EC50 of dexamethasone / EC50 of compound"}, "AR [4]": {"test_system": "AR", "conditions": "yeast-based AR bioassay; cited from earlier work"}, "AR [5]": {"test_system": "AR", "conditions": "U2-OS-based CALUX analogue (AR); cited from earlier work"}, "hGRα [6]": {"target": "T2, hGRα", "assay_type": "cell-based", "conditions": "GR-CALUX, co-exposure with 1 or 10 nM dexamethasone"}, "PR": {"test_system": "PR", "conditions": "yeast-based PR bioassay; cited from earlier work"}, "[7]": {"conditions": "co-exposure with budesonide (5 or 50 μM)"}, "[8]": {"conditions": "GR-CALUX, agonism, 24 h exposure"}, "[9]": {"conditions": "co-exposure with 150 or 500 μM dexamethasone"}}, "note": "Entries after “also recorded” stand apart in the source; their conditions may differ. Like-named read-outs stand apart in the source and are kept apart here.", "data": [{"smiles": "Clc1ccc(-c2c(Cl)cc(Cl)cc2Cl)c(Cl)c1", "note": "[PCB100]", "values": [{"measurement": "GR antagonism, in words", "setting": "[1]; [7]", "result": "only act as GR antagonists"}]}, {"smiles": "Clc1ccc(-c2ccc(Cl)cc2Cl)c(Cl)c1", "note": "[PCB47]", "values": [{"measurement": "GR antagonism, in words", "setting": "[1]; [7]", "result": "only act as GR antagonists"}]}, {"smiles": "Clc1ccc(Cl)c(-c2cc(Cl)cc(Cl)c2Cl)c1", "note": "[PCB92]", "values": [{"measurement": "agonistic response (production of yEGFP), in words", "setting": "[2]", "result": "slight agonistic effect"}, {"measurement": "GR antagonism, in words", "setting": "[1]; [7]", "result": "acts as a GR antagonist"}]}, {"smiles": "CCCC1O[C@@H]2C[C@H]3[C@@H]4CCC5=CC(=O)C=C[C@]5(C)[C@H]4[C@@H](O)C[C@]3(C)[C@]2(C(=O)CO)O1", "note": "(stereo partly drawn) [Budesonide, budesonide]", "values": [{"measurement": "agonistic response (production of yEGFP), in words", "setting": "[2]", "result": "dose-related increase in the production of yEGFP; also recorded: much more potent than Dex"}, {"measurement": "limit of detection", "setting": "[2]", "result": 0.5, "unit": "µM"}, {"measurement": "agonistic response (luciferase activity), in words", "setting": "hGRα [3]; compound alone, GR-CALUX", "result": "equally potent"}]}, {"smiles": "C[C@]12CC[C@H]3[C@@H](CCC4=CC(=O)CC[C@@]43C)[C@@H]1CC[C@@H]2O", "note": "[T, 17β-testosterone]", "values": [{"measurement": "EC50", "setting": "AR [4]", "result": "[…]"}, {"measurement": "EC50", "setting": "AR [5]", "result": "[…]"}]}, {"smiles": "C[C@]12C=CC(=O)C=C1CC[C@H]1[C@@H]3C[C@@H](O)[C@](O)(C(=O)CO)[C@@]3(C)C[C@H](O)[C@@]12F", "note": "[Triamcinolone, triamcinolone]", "values": [{"measurement": "EC50", "setting": "[2]", "result": "Active^a"}, {"measurement": "RCP (relative corticoid potency)", "setting": "[2]", "result": "Active"}, {"measurement": "EC50", "setting": "hGRα [3]", "result": 19, "unit": "nM"}, {"measurement": "RCP (relative corticoid potency)", "setting": "hGRα [3]; GR-CALUX", "result": 0.1}]}, {"smiles": "Clc1ccc(Cl)c(-c2cc(Cl)c(Cl)cc2Cl)c1", "note": "[PCB101]", "values": [{"measurement": "agonistic response (production of yEGFP), in words", "setting": "[2]", "result": "agonistic effect that is almost comparable with that of triamcinolone and progesterone"}, {"measurement": "inhibition of the response caused by 5 μM budesonide, in words", "setting": "[1]; co-exposure with 5 μM budesonide", "result": "almost fully inhibiting"}, {"measurement": "inhibition of the response caused by 50 μM budesonide", "setting": "[1]; co-exposure with 50 μM budesonide", "result": 50, "unit": "%"}, {"measurement": "GR antagonism, in words", "setting": "[1]; [7]", "result": "strongest GR antagonist"}]}, {"smiles": "C[C@]12C=CC(=O)C=C1CC[C@@H]1[C@@H]2[C@@H](O)C[C@@]2(C)[C@H]1CC[C@]2(O)C(=O)CO", "note": "[Prednisolone, prednisolone]", "values": [{"measurement": "agonistic response (production of yEGFP), in words", "setting": "[2]", "result": "dose-related increase in the production of yEGFP"}, {"measurement": "agonistic response (luciferase activity), in words", "setting": "hGRα [3]", "result": "dose-related increase in luciferase activity"}]}, {"smiles": "C[C@@H]1C[C@H]2[C@@H]3CCC4=CC(=O)C=C[C@]4(C)[C@@]3(F)[C@@H](O)C[C@]2(C)[C@@]1(O)C(=O)CO", "note": "[Dexamethasone, dexamethasone]", "values": [{"measurement": "agonistic response (production of yEGFP), in words", "setting": "[2]", "result": "dose-related increase in the production of yEGFP"}, {"measurement": "agonistic response (luciferase activity), in words", "setting": "hGRα [3]", "result": "dose-related increase in luciferase activity"}]}, {"smiles": "C[C@H]1C[C@H]2[C@@H]3CCC4=CC(=O)C=C[C@]4(C)[C@@]3(F)[C@@H](O)C[C@]2(C)[C@@]1(O)C(=O)CO", "note": "[Betamethasone, betamethasone]", "values": [{"measurement": "agonistic response (production of yEGFP), in words", "setting": "[2]", "result": "dose-related increase in the production of yEGFP"}, {"measurement": "agonistic response (luciferase activity), in words", "setting": "hGRα [3]", "result": "dose-related increase in luciferase activity"}]}, {"smiles": "C[C@]12CC[C@@H]3c4ccc(O)cc4CC[C@H]3[C@@H]1CC[C@@H]2O", "note": "[17β-Estradiol (E2), 17β-estradiol]", "values": [{"measurement": "EC50", "setting": "[2]", "result": "Not active"}, {"measurement": "RCP (relative corticoid potency)", "setting": "[2]", "result": 0.0}, {"measurement": "agonistic response (production of yEGFP), in words", "setting": "[2]", "result": "no agonistic response"}, {"measurement": "EC50", "setting": "hGRα [3]; [8]", "result": "Not active"}, {"measurement": "RCP (relative corticoid potency)", "setting": "hGRα [3]; GR-CALUX", "result": 0}]}, {"smiles": "C[C@]12CCC(=O)C=C1CC[C@@H]1[C@@H]2[C@@H](O)C[C@@]2(C)[C@H]1CC[C@]2(O)C(=O)CO", "note": "[Cortisol, cortisol]", "values": [{"measurement": "agonistic response (production of yEGFP), in words", "setting": "[2]", "result": "dose-related increase in the production of yEGFP"}, {"measurement": "agonistic response (luciferase activity), in words", "setting": "hGRα [3]; compound alone, GR-CALUX", "result": "dose-related increase in luciferase activity"}]}, {"smiles": "C[C@]12C[C@H](O)[C@H]3[C@@H](CCC4=CC(=O)CC[C@@]43C)[C@@H]1CC[C@@H]2C(=O)CO", "note": "[Corticosterone, corticosterone]", "values": [{"measurement": "RCP (relative corticoid potency)", "setting": "[2]", "result": 1.7}, {"measurement": "agonistic response (production of yEGFP), in words", "setting": "[2]", "result": "dose-related increase in the production of yEGFP"}, {"measurement": "EC50", "setting": "[2]; EC50", "result": 71000, "unit": "nM"}, {"measurement": "EC50", "setting": "hGRα [3]", "result": 80, "unit": "nM"}, {"measurement": "agonistic response (luciferase activity), in words", "setting": "hGRα [3]; compound alone, GR-CALUX", "result": "dose-related increase in luciferase activity"}, {"measurement": "RCP (relative corticoid potency)", "setting": "hGRα [3]; GR-CALUX", "result": 0.03}]}, {"smiles": "C[C@]12CCC(=O)C=C1CC[C@@H]1[C@@H]2C(=O)C[C@@]2(C)[C@H]1CC[C@]2(O)C(=O)CO", "note": "[Cortisone, cortisone]", "values": [{"measurement": "EC50", "setting": "[2]", "result": "Not active"}, {"measurement": "RCP (relative corticoid potency)", "setting": "[2]", "result": 0.0}, {"measurement": "agonistic response (production of yEGFP), in words", "setting": "[2]", "result": "no response"}, {"measurement": "EC50", "setting": "hGRα [3]; [8]", "result": "Not active"}, {"measurement": "agonistic response (luciferase activity), in words", "setting": "hGRα [3]; compound alone, GR-CALUX", "result": "no response"}, {"measurement": "RCP (relative corticoid potency)", "setting": "hGRα [3]; GR-CALUX", "result": 0}]}, {"smiles": "CC(=O)OCC(=O)[C@@]1(O)CC[C@H]2[C@@H]3CCC4=CC(=O)CC[C@]4(C)[C@@]3(F)[C@@H](O)C[C@@]21C", "note": "[Fludrocortisone-21-acetate, fludrocortisone-21-acetate]", "values": [{"measurement": "EC50", "setting": "[2]", "result": "Not active"}, {"measurement": "agonistic response (luciferase activity), in words", "setting": "hGRα [3]; compound alone, GR-CALUX", "result": "active"}]}, {"smiles": "C[C@]12CCC(=O)C[C@@H]1CC[C@@H]1[C@@H]2CC[C@]2(C)[C@@H](O)CC[C@@H]12", "note": "[5α-Dihydrotestosterone, 5α-dihydrotestosterone]", "values": [{"measurement": "EC50", "setting": "hGRα [3]", "result": "Not active"}]}, {"smiles": "CC#C[C@]1(O)CC[C@H]2[C@@H]3CCC4=CC(=O)CCC4=C3[C@@H](c3ccc(N(C)C)cc3)C[C@@]21C", "note": "[Mifepristone, mifepristone]", "values": [{"measurement": "EC50", "setting": "hGRα [3]", "result": "Not active^b"}, {"measurement": "GR antagonism, in words", "setting": "[1]; [9]", "result": "only slightly acted as GR antagonists"}, {"measurement": "GR antagonism, in words", "setting": "hGRα [6]", "result": "pure GR antagonists"}]}, {"smiles": "C[C@]12CCC(=O)C=C1CC[C@@H]1[C@@H]2[C@@H](O)C[C@]2(C=O)[C@@H](C(=O)CO)CC[C@@H]12", "note": "[Aldosterone]", "values": [{"measurement": "RCP (relative corticoid potency)", "setting": "[2]", "result": 0.2}, {"measurement": "agonistic response (production of yEGFP), in words", "setting": "[2]", "result": "dose-related increase in the production of yEGFP"}, {"measurement": "EC50", "setting": "[2]; EC50", "result": 705000, "unit": "nM"}, {"measurement": "EC50", "setting": "hGRα [3]", "result": 495, "unit": "nM"}, {"measurement": "agonistic response (luciferase activity), in words", "setting": "hGRα [3]; compound alone, GR-CALUX", "result": "dose-related increase in luciferase activity"}, {"measurement": "RCP (relative corticoid potency)", "setting": "hGRα [3]; GR-CALUX", "result": 0.004}]}, {"smiles": "CN(C)c1ccc([C@H]2C[C@@]3(C)[C@@H](CC[C@@]3(O)C#Cc3ccc(S(C)(=O)=O)cc3)[C@@H]3CCC4=CC(=O)CCC4=C32)cc1", "note": "[Org 34850]", "values": [{"measurement": "GR antagonism, in words", "setting": "[1]; [9]", "result": "only slightly acted as GR antagonists"}, {"measurement": "GR antagonism, in words", "setting": "hGRα [6]", "result": "pure GR antagonist"}]}, {"smiles": "CC(=O)[C@H]1CC[C@H]2[C@@H]3CCC4=CC(=O)CC[C@]4(C)[C@H]3CC[C@]12C", "note": "[Progesterone (P4), progesterone]", "values": [{"measurement": "EC50", "setting": "PR", "result": "[…]"}]}]}
